From patent US9861703B2 (Jinan Platinum Pharmatech Co. Ltd., priority 2013, dated 2018)

Legend:
[1] = test system: human leukemia cell line K562; assay: MTT proliferation inhibition, K562; format: cell-based; settings: 48 h
Experimental: (§1) Human leukemia cell line K562, clear-cell ovarian carcinoma cell line ES-2, human prostate cancer cell line PC-3, human breast cancer cell line MCF-7, cell line Hela, human liver cancer cell line H7402 and human ovarian cancer cell line 3-AO were transferred into a culture flask and were cultured in a medium at 37° C. in a 5% CO2 and saturation humidity. One bottle of cells in logarithmic growth phase was picked out and was blew and beaten to be uniform with a pipette, then took some cell suspension solution to prepare blood counting plate smear to count cells under inverted microscope, and then adjusted the cell number to be 1×10^5/mL by adding some culture medium. Cells were seeded on a 96-well plate on which also drug tests performed. Blank control group, negative control group, positive control group and drug test group were established on the plate while the surrounding wells of the plate were not used (but filled with sterile PBS), wherein the blank control groups were prepared by addition of culture medium 150 μL per well, the negative control groups were prepared by addition of cell suspension solution 100 μL per well and culture medium 50 μL per well, the positive control groups were prepared by addition of cell suspension solution 100 μL per well and positive control drug solution 50 μL per well, the drug test groups were prepared by addition of cell suspension solution 100 μL per well and test compound solution 50 μL per well, and there were 5 different concentrations of drug in the positive control group and the drug test group respectively: 0.01, 0.1, 1, 10, 100 μmol·L^−1, each concentration was established with 3 parallel wells. After the drug was added, the 96-well plate was incubated for 48 h at 37° C. in a CO2 incubator of 5% CO2 and saturation humidity. Upon completion of the incubation, 20 μL MTT solution (concentration was 5 mg/mL) was added to each well and incubated for an additional 4 h, and after the 96-well plate was centrifuged at 2000 rpm for 30 min, medium of each well was suck out carefully and removed and 100 μL DMSO was added instead, followed by vibrating on a tablet shaker for 15 min to re-dissolve formazan crystals completely. OD value of each well was measured at 570 nm wavelength using an enzyme-linked immunosorbent assay reader to calculate cellular proliferation inhibitory ratio of each drug in different concentrations. And half-inhibitory concentration (IC50) was calculated using statistical software SPSS 16.0, wherein the cellular proliferation inhibitory ratio can be calculated as following equation: […]

[2] = test system: human breast cancer cell line MCF-7; assay: MTT proliferation inhibition, MCF-7; format: cell-based; settings: 48 h
Experimental: as §1

cell line Hela = assay: MTT proliferation inhibition, Hela; format: cell-based
Experimental: as §1

[3] = test system: human ovarian cancer cell line 3-AO; assay: MTT proliferation inhibition, 3-AO; format: cell-based; settings: 48 h
Experimental: as §1

liver cancer H22 = assay: Inhibition assay of oral administration against liver cancer H22 (Example 33); format: in vivo, Kunming mice; settings: oral gavage, 100 mg/kg/d, sacrificed after 13 days
Experimental: (1) the negative control: PBS; (2) Xeloda group: 100 mg/kg/d; (3) TFU group: 70 mg/kg/d; (4) BC-01 group: 100 mg/kg/d.
[formula] [formula] [formula] 2.2: Inhibition Assay of Intravenous Administration Against Liver Cancer H22

H22 tumor cells = assay: Activities of compounds in H22 tumor cells bearing Kunming mice models (Example 34); settings: for anti-tumor growth activity: FIGS. 11-14; for Number of mice alive: 8 mice; for Tumor growth inhibition (%) / Tumor weight: after two cycles
Experimental: The ascites was extracted from H22 tumour bearing mice with well growth, followed by adding sterile PBS to dilute the ascites to a concentration of 8.5×10^7 cells/mL. 100 uL of the cells solution was suck up by a 1 mL sterile injector to inoculate into right oxter of mice. After 3 days, the mice were weighted and randomized to several groups (almost 8 mice per group, and a bit more in control group). These mice were administrated a predetermined dosage by intravenous or oral gavage with two days off when having administrated for 5 days until two cycles one of which had 7 days. The body weight of mouse was recorded at the beginning and ending of every cycle,
After being administrated for two cycles, the mice were weighted and recorded, then sacrificed by cervical dislocation to get lung, liver and spleen weighted respectively.
Overall difference was calculated by the function of one-way analysis of variance (One-Way ANOVA) in Origin 7.5 software; and t-test was used for pair-comparison between drug administrated group and blank group, and the inhibitory ratio of drug in each group was calculated based on the following equation: inhibitory ratio (100%)=(mean tumor weight of control group−mean tumor weight of drug administrated group)/mean tumor weight of control group×100.

[4] = intravenous injection, 50 mg/kg/d (0.1 mmol/kg/d)
[5] = oral gavage, 120 mg/kg/d ([…]) per dosage table, group printed *BC-01(50)
[6] = intravenous injection, 55 mg/kg/d (0.1 mmol/kg/d) (by order of dosage table)
[7] = intravenous injection, 79 mg/kg/d (0.15 mmol/kg/d) (by order of dosage table)
[8] = oral gavage, 130 mg/kg/d ([…]) per dosage table, group printed *BC-02(70)

## CC(C)C[C@H](NC(=O)[C@@H](O)[C@H](N)Cc1ccccc1)C(=O)OCn1cc(F)c(=O)[nH]c1=O.Cl [BC-01, (S)-(5-fluoro-2,4-dioxo-3,4-dihydropyrimidinyl-1(2H))methyl-2-((2S,3R)-3-(amino)-2-hydroxy-4-phenylbutyryl)-4-methylpentanoate hydrochloride]
[1]
  EC50: 5.82 µM
[2]
  EC50: 1.35 µM
Cell line Hela
  proliferation inhibition activity against Hela compared with ubenimex and 5-FU: much higher proliferation inhibition activity
Cell line Hela; 48 h
  EC50: 0.73 µM
[3]
  EC50: 2.59 µM
Liver cancer H22; two cycles (5 days on, 2 off)
  Tumor weight: 0.26 g
Liver cancer H22; two cycles
  inhibitory ratio (%): 66.67%
H22 tumor cells
  anti-tumor growth activity: excellent anti-tumor growth activity
H22 tumor cells; intravenous injection, 50 mg/kg/d (0.1 mmol/kg/d), two cycles
  Number of mice alive: 8
H22 tumor cells; [4]
  Tumor growth inhibition (%): 84.38%
  Tumor weight: 0.09 ± 0.14 g
  Body weight(g) Beginning: 31.52 ± 3.63 g
  Body weight(g) Ending: 31.78 ± 5.76 g
H22 tumor cells; [5]
  Number of mice alive: 7
  Tumor growth inhibition (%): 79.52%
  Tumor weight: 0.12 ± 0.16 g
  Body weight(g) Beginning: 27.87 ± 2.55 g
  Body weight(g) Ending: 29.50 ± 2.15 g

## CC(C)C[C@H](NC(=O)[C@@H](O)[C@H](N)Cc1ccccc1)C(=O)NCC(=O)OCn1cc(F)c(=O)[nH]c1=O.Cl [BC-02, (5-fluoro-2,4-dioxo-3,4-dihydropyrimidinyl-1(2H))methyl-2-((S)-2-((2S,3R)-3-amino-2-hydroxy-4-phenylbutanamido)-4-methylpentanamido)acetate hydrochloride]
H22 tumor cells; 0.15 mmol/kg/d, intravenous
  tumor appearance until the end of the experiment: no tumor appeared
H22 tumor cells
  anti-tumor growth activity: excellent anti-tumor growth activity
H22 tumor cells; [6]
  Number of mice alive: 7
  Tumor growth inhibition (%): 89.52%
  Tumor weight: 0.06 ± 0.11 g
  Body weight(g) Beginning: 25.67 ± 2.62 g
  Body weight(g) Ending: 28.35 ± 3.71 g
H22 tumor cells; [7]
  Number of mice alive: 7
  Tumor growth inhibition (%): 100%
  Tumor weight: 0.0 ± 0.0 g
  Body weight(g) Beginning: 30.32 ± 4.42 g
  Body weight(g) Ending: 31.13 ± 3.55 g
H22 tumor cells; [8]
  Number of mice alive: 7
  Tumor growth inhibition (%): 89.76%
  Tumor weight: 0.06 ± 0.11 g
  Body weight(g) Beginning: 27.98 ± 3.73 g
  Body weight(g) Ending: 27.49 ± 4.94 g
